Legend:
Hos:HR-1 mice = experiment: Preventive effect on skin cancer in ultraviolet light-irradiated hairless mice; assay type: in vivo; settings: 3% AMP2Na in 20% ethanol aqueous solution, 0.1 mL on the back twice a day, 5 days a week
Experimental: In this Example, hairless mice were irradiated with ultraviolet light, and the preventive effect of AMP2Na against photocarcinogenesis in the mice was examined.
5-week-old female Hos:HR-1 mice were purchased from Japan SLC, Inc., and from the age of 7 weeks, ultraviolet light (UV-B) irradiation was performed on their back. The ultraviolet irradiation (irradiation amount per time: 60 mJ/cm^2) was performed once a day, 5 days a week, for 12 weeks.
Then, a 20% ethanol aqueous solution containing 3% of AMP2Na dissolved therein (test solution) and a 20% ethanol aqueous solution containing no AMP2Na (base) were prepared.
After feeding the ultraviolet light-irradiated mice under normal conditions for 1 week, the mice were divided into 3 groups (6 mice in each group) under the conditions shown in Table 1, and fed for 12 weeks.
The development of tumors was determined, and the number of tumors was counted.

JB6 cells = experiment: Amount of cyclobutane pyrimidine dimers (CPD) in genomic DNA of UV-B irradiated JB6 cells, by ELISA; assay type: cell-based, mouse; settings: 15 mJ/cm^2 UV-B, 48 h
Experimental: In this Example, normal mouse epidermal cells were irradiated with ultraviolet light, and then cultured in an AMP2Na-containing culture medium. Using the amount of cyclobutane pyrimidine dimers (CPD) as an index, the action of AMP2Na to reduce DNA mutation was examined.
Normal mouse epidermal cell-derived JB6 cells (purchased from ATCC) were cultured in an FBS-containing MEM culture medium until subconfluent. Subsequently, 4×10^5 cultured cells were seeded into a 3.5 cm-dish with MEM (minimum essential medium) culture medium containing FBS (fetal bovine serum). Next day after the seeding, the culture medium was replaced with a serum-free MEM culture medium for serum starvation. Subsequently, the culture medium was replaced with PBS, followed by the irradiation with 15 mJ/cm^2 of UV-B. After ultraviolet irradiation, the culture medium was replaced with serum-free MEM culture medium containing 0.01 mM, 0.1 mM, or 1 mM AMP2Na or AMP2Na-free culture-medium (control). After the replacement of the culture medium, the cells were cultured with 5% CO2 at 37° C. for 48 hours, and then collected.
Genomic DNA was extracted from the collected cells using a FastPure (trademark) DNA kit (Takara Bio Inc.). The extraction was carried out in accordance with the kit manual.
The amount of CPD in genomic DNA extracted from each cell was measured using ELISA. In particular, the extracted genomic DNA was heated at 100° C. for 10 minutes, and cooled on ice. Subsequently, genomic DNA was dispensed (50 μL/well) into a 96-well microplate coated with protamine sulfate, and dried. The following day, each of the wells was washed with PBS-T (PBS with Tween 20), and FBS-containing PBS was dispensed into each of the wells. The wells were then kept for 30 minutes at 37° C. […] Subsequently, the absorbance values at 492 nm were measured, and the amount of CPD in genomic DNA was calculated to determine the rate of change of CPD (variation in the relative amount of CPD; %) under each condition when the amount of CPD in the case of cultivation in the AMP2Na-free culture medium was assigned a value of 100%.

caspase 3 = experiment: Caspase 3 activity in human epidermal keratinocytes treated with AMP2Na, with or without UV-B irradiation; assay type: cell-based
Excerpt: The present Example examined a change in the caspase activity when human epidermal cells treated with disodium adenosine 5′-monophosphate (AMP2Na) were irradiated with ultraviolet light.
Human epidermal keratinocytes (purchased from Kurabo Industries Ltd.) were precultured using EpiLife-KG2 culture medium (produced by Kurabo Industries Ltd.) in 10 cm collagen-coated petri dishes (produced by Asahi Glass Co., Ltd.), and seeded at a density of 30,000 cells/well into a collagen-coated 96-well microplate. After cultivation in the EpiLife-KG2 culture medium for 8 hours, the culture medium was replaced with EpiLife culture medium (produced by Kurabo Industries Ltd.), followed by cultivation for an additional 16 hours. Subsequently, the culture medium was replaced with AMP2Na-containing culture medium adjusted to various concentrations. […] Subsequently, the activity of caspase 3 expressed in the cells were measured using a SensoLyte™ Rh110 Caspase 3 Assay Kit (produced by AnaSpec, Inc.). […] Further, in order to examine influences that AMP2Na affect the caspase activity of normal cells, caspase activity of the cells that were not irradiated with UV-B but treated with AMP2Na was determined. […]

[1] = 6th week from start of application

SMILES: Nc1ncnc2c1ncn2[C@@H]1O[C@H](COP(=O)([O-])[O-])[C@@H](O)[C@H]1O.[Na+].[Na+] [AMP2Na, disodium adenosine 5′-monophosphate]
- average number of tumors developed per mouse (Hos:HR-1 mice; [1]): 0
- tumor formation on the back of the mice (Hos:HR-1 mice; [1]): not in the test solution-applied group
- tumor incidence (Hos:HR-1 mice; [1]): 0%
- tumor incidence (Hos:HR-1 mice; 12th week from start of application): 17%
- relative amount of CPD (JB6 cells; then 0.1 mM AMP2Na, versus control): decrease in the relative amount of CPD compared to the control group was significant
- relative amount of CPD (JB6 cells; then 1 mM AMP2Na, versus control): decrease in the relative amount of CPD compared to the control group was significant
- relative amount of CPD (JB6 cells; then AMP2Na added (0.01, 0.1 or 1 mM), AMP2Na-free control = 100%): decreased compared to the control group
- caspase activity (caspase 3; human epidermal keratinocytes pretreated 2 h with AMP2Na, then 30 mJ/cm^2 UV-B, measured after 6 h cultivation): significant increase in the caspase activity
- caspase activity (caspase 3; non-ultraviolet-irradiated human epidermal keratinocytes, 2 h treatment with AMP2Na-containing medium at various concentrations): almost no increase in the caspase activity

— US9125928B2, “Agent for suppressing the formation of abnormal skin cells caused by exposure to light” (OTSUKA PHARMACEUTICAL CO., LTD., priority 2010, dated 2015)
